Results from patent US8158656B2, “2-indolinone derivatives as multi-target protein kinase inhibitors and histone deacetylase inhibitors” (Shenzhen Chipscreen Biosciences Ltd., priority 2008, dated 2012).

What was measured:
[1] = system: Hut-78; experiment: Tumor cell proliferation (MTS), Hut-78; assay type: cell-based; settings: Homo sapiens, HuT78, Hut-78, 72 hours
Protocol: (§1) Measurement of in vivo cell proliferation:
(§2) Tumor cells were trypsinized and plated into 96-well plates at 3,000 per well and incubated in complete medium with 10% FBS for 24 hours. Compounds were added over a final concentration range of 100 μmol/L to 100 nmol/L in 0.1% DMSO and incubated for 72 hours in complete medium. The effects on proliferation were determined by addition of MTS reagent (Promega) according to the instruction, incubation for 2 hours at 37° C. in CO2 incubator, and record the absorbance at 490 nm using an ELISA plate reader.

[2] = molecular target: T1, HDAC3 (Homo sapiens, UniProt O15379); experiment: GDF11 reporter assay in HeLa cells; assay type: cell-based; settings: for EC50: 24 hours; for HDAC3 (GDF11 reporter assay) % Max Resp of CS055 at 3 μM: relative to CS055 at 3 μM
T1 construct: endogenous in cells; host or cells: HeLa
Protocol: (§3) HDAC subtype selectivity inhibition assay of tested compounds was carried out by several reporter gene assays experiments. Briefly, HeLa cells were seeded in 96-well plates the day before transfection to give a confluence of 50-80%. Cells were transfected with one of reporter gene plasmid containing a promoter sequence or response element upstream of a luciferase gene construct using FuGene6 transfection reagent according to the manufacturer's instruction (Roche). The promoters or response elements including p21-promoter, gdf11-promoter, MEF-binding element (MEF2), Nur77-promoter were fused upstream to the luciferase gene reporter construct. For normalizing the transfection efficiency, a GFP expression plasmid was cotransfected. Cells were allowed to express protein for 24 hours followed by addition of individual compounds or the vehicle (DMSO). 24 hours later the cells were harvested, and the luciferase assay and GFP assay were performed using corresponding assay kits according to the manufacturer's instructions (Promega).

[3] = system: MDA-MB-231; experiment: Tumor cell proliferation (MTS), MDA-MB-231; assay type: cell-based; settings: Homo sapiens, MDA-MB-231, 72 hours
Protocol: as §1, §2

[4] = system: HUVEC cells; experiment: VEGF ligand-dependent cell proliferation; assay type: cell-based; settings: Homo sapiens, VEGF 165 50 ng/ml, 72 hours, MTS
Protocol: VEGF dependent cell proliferation:
HUVEC cells were plated into 96-well plates at 6,000 per well and incubated with serum-free medium for 2 hours. Compounds and VEGF 165 (50 ng/ml) were added and incubated for 72 hours in serum-free medium. The effects on proliferation were determined by addition of MTS reagent (Promega) according to the instruction, incubation for 2 hours at 37° C. in CO2 incubator, and record the absorbance at 490 nm using an ELISA plate reader.

[5] = system: Bel-7402; experiment: Tumor cell proliferation (MTS), Bel-7402; assay type: cell-based; settings: Homo sapiens, Bel-7402, 72 hours
Protocol: as §1, §2

[6] = system: HDAC4/5; experiment: MEF2 reporter assay in HeLa cells; assay type: cell-based, human; settings: for EC50: 24 hours; for HDAC4/5 (MEF2 reporter assay) % Max Resp of CS055 at 3 μM: relative to CS055 at 3 μM
Protocol: as §3

[7] = molecular target: T2, c-Kit (Homo sapiens, UniProt P10721); experiment: c-KIT kinase ELISA bioassay; assay type: biochemical; settings: ELISA kinase assay, 20 μM ATP
T2 construct: purchased Cell Signaling
Protocol: This assay is used to measure in vitro kinase activity of c-KIT in an ELISA assay.
• 1. Streptavidin coated, 96-well, white plate • 2. Phospho-Tyrosine Monoclonal Antibody (P-Tyr-100) (Cell Signaling) • 3. HRP-labeled anti-mouse IgG (Upstate) • 4. HTScan™ Tyrosine Kinase Buffer (4×) • 5. DTT (1000×. 1.25 M) • 6. ATP (10 mM) • 7. KDR (Tyr996) Biotinylated Peptide Substrate (Cell Signaling) • 8. c-KIT Kinase (recombinant, human) (Cell Signaling) • 9. Wash Buffer: 1× PBS, 0.05% Tween-20 (PBS/T) • 10. Bovine Serum Albumin (BSA) • 11. Stop Buffer: 50 mM EDTA pH 8 • 12. Enhanced chemiluminescence (ECL) (Amersham) Procedure for performing the assay in 96-well plate: • 1. Add 10 μl 10 mM ATP to 1.25 ml 6 μM substrate peptide. Dilute the mixture with dH20 to 2.5 ml to make 2× ATP/substrate cocktail ([ATP]=40 μM, [substrate]=3 μm). • 2. Immediately transfer enzyme from −80° C. to ice. Allow enzyme to thaw on ice. • 3. Microcentrifuge briefly at 4° C. to bring liquid to the bottom of the vial. Return immediately to ice. • 4. Add 10 μl of DTT (1.25 M) to 2.5 ml of 4× HTScan™ Tyrosine Kinase Buffer (240 mM HEPES pH 7.5, 20 mM MgCl2, 20 mM MnCl2, 12 μM Na3VO4) to make DTT/Kinase buffer. • 5. Transfer 1.25 ml of DTT/Kinase buffer to enzyme tube to make 4× reaction cocktail ([enzyme]=4 ng/μL in 4× reaction cocktail). • 6. Incubate 12.5 μl of the 4× reaction cocktail with 12.5 μl/well of prediluted compound of interest (usually around 10 μM) for 5 minutes at room temperature. • 7. Add 25 μl of 2× ATP/substrate cocktail to 25 μl/well preincubated reaction cocktail/compound. Final Assay Conditions for a 50 μl Reaction: • 60 mM HEPES pH 7.5 • 5 mM MgCl2 • 5 mM MnCl2 • 3 μM Na3VO4 • 1.25 mM DTT • 20 μM ATP • 1.5 μM peptide • 100 ng c-KIT Kinase • 8. Incubate reaction plate at room temperature for 30 minutes. • 9. Add 50 μl/well Stop Buffer (50 mM EDTA, pH 8) to stop the reaction. • 10. Transfer 25 μl of each reaction and 75 μl dH2O/well to a 96-well streptavidincoated plate and incubate at room temperature for 60 minutes. • 11. Wash three times with 200 μl/well PBS/T • 12. Dilute primary antibody, Phospho-Tyrosine Monoclonal Antibody (P-Tyr-100), 1:1000 in PBS/T with 1% BSA. Add 100 μl/well of primary antibody. • 13. Incubate at room temperature for 60 minutes. • 14. Wash three times with 200 μl/well PBS/T • 15. Dilute HRP labeled anti-mouse IgG 1:500 in PBS/T with 1% BSA. Add 100 μl/well diluted antibody. • 16. Incubate at room temperature for 30 minutes. • 17. Wash five times with 200 μl/well PBS/T. • 18. Add 100 μl/well ECL Solution. • 19. Detect luminescence with appropriate Plate Reader. Flt3 Bioassay

T2 sequence (P10721 26-976): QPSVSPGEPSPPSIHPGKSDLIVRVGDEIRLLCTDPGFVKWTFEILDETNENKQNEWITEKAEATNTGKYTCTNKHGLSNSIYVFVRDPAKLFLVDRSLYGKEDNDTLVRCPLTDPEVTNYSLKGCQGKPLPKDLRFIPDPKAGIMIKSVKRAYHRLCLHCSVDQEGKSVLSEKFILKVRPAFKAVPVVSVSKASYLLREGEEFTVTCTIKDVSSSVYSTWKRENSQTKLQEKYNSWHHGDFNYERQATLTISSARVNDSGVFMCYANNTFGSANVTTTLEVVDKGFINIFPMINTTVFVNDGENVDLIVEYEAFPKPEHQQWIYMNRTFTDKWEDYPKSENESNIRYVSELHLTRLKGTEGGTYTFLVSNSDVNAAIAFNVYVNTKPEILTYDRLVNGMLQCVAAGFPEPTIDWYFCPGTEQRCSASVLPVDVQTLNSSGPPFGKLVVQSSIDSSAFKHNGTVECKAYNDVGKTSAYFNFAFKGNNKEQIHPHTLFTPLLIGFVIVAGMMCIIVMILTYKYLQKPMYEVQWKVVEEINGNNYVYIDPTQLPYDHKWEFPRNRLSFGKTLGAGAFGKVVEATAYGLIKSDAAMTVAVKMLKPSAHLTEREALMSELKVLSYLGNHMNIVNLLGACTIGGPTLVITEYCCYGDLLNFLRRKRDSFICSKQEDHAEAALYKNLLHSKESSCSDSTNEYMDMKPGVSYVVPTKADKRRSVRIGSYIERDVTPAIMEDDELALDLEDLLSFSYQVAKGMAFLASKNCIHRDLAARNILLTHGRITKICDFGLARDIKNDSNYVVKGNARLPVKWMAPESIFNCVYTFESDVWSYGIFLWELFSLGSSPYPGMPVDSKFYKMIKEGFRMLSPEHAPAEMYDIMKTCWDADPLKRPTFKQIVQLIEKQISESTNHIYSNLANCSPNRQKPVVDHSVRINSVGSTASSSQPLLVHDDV
T1 sequence (O15379 whole entry): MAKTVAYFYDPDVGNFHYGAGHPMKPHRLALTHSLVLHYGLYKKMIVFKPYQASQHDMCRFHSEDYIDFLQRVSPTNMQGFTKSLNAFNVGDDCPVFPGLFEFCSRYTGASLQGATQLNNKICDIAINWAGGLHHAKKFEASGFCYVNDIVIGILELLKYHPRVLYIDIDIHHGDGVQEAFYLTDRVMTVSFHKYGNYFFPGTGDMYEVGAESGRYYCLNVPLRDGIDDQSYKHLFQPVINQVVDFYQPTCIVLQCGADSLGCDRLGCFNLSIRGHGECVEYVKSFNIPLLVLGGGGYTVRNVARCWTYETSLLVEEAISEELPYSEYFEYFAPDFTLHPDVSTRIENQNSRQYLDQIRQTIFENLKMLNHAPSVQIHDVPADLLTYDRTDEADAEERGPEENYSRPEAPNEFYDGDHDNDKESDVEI
T1 sequence (Q9Y618 whole entry partner): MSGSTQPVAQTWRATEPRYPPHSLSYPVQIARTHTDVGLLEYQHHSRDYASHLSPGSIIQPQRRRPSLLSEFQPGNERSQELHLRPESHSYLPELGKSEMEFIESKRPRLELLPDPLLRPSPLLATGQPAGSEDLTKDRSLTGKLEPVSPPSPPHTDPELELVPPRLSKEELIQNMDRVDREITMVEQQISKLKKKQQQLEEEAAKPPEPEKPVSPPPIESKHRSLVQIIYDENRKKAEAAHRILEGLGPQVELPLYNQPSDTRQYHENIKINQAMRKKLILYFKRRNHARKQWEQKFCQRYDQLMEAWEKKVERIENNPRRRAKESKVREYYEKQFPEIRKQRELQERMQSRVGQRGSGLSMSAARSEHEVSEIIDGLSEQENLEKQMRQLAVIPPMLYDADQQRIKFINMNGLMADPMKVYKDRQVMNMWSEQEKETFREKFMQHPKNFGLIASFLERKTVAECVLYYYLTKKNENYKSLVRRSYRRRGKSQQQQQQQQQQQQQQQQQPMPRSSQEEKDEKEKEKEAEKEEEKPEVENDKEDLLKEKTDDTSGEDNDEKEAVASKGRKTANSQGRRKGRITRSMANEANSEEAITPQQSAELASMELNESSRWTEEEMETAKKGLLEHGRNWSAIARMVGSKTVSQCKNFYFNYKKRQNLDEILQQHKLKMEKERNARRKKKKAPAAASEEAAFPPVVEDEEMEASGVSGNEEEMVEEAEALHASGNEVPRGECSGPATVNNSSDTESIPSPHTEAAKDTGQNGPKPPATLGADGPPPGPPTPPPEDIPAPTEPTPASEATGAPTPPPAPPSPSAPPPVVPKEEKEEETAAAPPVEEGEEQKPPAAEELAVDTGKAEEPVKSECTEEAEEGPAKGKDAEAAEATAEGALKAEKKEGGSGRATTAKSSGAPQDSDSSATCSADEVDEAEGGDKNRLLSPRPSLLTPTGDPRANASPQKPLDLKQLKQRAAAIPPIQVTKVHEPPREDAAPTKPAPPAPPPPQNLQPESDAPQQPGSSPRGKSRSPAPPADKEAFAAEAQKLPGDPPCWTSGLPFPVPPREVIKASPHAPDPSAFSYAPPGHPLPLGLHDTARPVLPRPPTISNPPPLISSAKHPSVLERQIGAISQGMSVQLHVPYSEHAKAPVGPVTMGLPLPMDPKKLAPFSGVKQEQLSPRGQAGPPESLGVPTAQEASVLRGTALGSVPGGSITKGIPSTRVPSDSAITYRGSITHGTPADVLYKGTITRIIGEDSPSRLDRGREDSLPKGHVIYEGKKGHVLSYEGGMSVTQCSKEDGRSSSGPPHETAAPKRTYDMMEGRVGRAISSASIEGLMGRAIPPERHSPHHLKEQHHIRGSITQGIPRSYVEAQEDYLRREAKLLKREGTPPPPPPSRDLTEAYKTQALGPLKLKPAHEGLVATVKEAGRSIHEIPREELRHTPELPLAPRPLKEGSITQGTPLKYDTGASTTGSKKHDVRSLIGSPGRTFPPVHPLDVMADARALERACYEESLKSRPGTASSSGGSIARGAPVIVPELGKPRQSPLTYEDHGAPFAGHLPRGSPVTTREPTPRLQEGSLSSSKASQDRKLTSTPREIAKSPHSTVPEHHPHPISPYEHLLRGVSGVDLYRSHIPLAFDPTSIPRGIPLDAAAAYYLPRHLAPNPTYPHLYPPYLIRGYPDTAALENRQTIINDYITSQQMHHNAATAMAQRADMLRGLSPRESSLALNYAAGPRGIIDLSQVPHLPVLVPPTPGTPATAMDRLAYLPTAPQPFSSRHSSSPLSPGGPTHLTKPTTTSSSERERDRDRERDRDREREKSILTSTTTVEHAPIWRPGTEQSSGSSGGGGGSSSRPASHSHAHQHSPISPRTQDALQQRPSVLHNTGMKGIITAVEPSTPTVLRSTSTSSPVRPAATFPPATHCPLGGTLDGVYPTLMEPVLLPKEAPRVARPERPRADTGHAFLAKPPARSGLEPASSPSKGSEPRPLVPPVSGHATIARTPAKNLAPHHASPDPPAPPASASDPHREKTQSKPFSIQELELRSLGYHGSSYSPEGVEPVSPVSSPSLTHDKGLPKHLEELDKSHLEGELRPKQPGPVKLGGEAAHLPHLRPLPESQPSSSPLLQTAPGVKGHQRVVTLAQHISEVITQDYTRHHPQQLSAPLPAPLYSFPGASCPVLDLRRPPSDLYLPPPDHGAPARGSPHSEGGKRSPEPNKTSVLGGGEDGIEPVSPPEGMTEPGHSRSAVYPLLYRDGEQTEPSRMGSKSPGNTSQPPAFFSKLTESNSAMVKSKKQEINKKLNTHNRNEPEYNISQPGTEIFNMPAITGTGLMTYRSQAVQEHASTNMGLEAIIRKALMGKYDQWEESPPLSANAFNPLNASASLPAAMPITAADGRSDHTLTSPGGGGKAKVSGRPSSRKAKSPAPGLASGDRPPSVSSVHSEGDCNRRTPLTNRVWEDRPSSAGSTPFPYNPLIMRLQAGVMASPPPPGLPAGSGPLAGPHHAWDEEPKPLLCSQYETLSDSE

Row | SMILES | GI50 [1] | EC50 [2] | HDAC3 (GDF11 reporter assay) % Max Resp of CS055 at 3 μM [2] | GI50 [3] | GI50 [4] | GI50 [5] | EC50 [6] | HDAC4/5 (MEF2 reporter assay) % Max Resp of CS055 at 3 μM [6] | IC50 [7]
1 | Cc1[nH]c(/C=C2\C(=O)Nc3ccc(F)cc32)c(C)c1C(=O)NCCNc1ccc(C(=O)Nc2ccccc2N)cn1 [Example 3, (Z)-N-(2-aminophenyl)-6-(2-(2-((5-fluoro-2-oxoindolin-3-ylidene)methyl)-3,5-dimethyl-1H-pyrrole-4-carboxamido)ethylamino)nicotinamide] | 1.77 µM | 1900 nM | 106.2% | > 60 µM | < 1 nM | > 60 µM | 2200 nM | 83.2% | 157 nM
2 | Cc1[nH]c(/C=N/N=C2\C(=O)Nc3ccc(F)cc32)c(C)c1C(=O)NCCNc1ccc(C(=O)Nc2ccccc2N)cn1 [Example 4, N-(2-aminophenyl)-6-(2-(2-(((5-fluoro-2-oxoindolin-3-ylidene)hydrazono)-methyl)-3,5-dimethyl-1H-pyrrole-4-carboxamido)ethylamino)nicotinamide] | > 60 µM |  | 2.4% | > 60 µM | 1 nM | > 60 µM |  | 4.9% | > 1000 nM
3 | Cc1[nH]c(/C=C2\C(=O)Nc3ccc(F)cc32)c(C)c1C(=O)NCCCNc1ccc(C(=O)Nc2ccccc2N)cn1 [Example 6, (Z)-N-(2-aminophenyl)-6-(3-(2-((5-fluoro-2-oxoindolin-3-ylidene)methyl)-3,5-dimethyl-1H-pyrrole-4-carboxamido)propylamino)nicotinamide] | > 60 µM | 1000 nM | 75.6% | > 60 µM | 9 nM | > 60 µM | 1000 nM | 44.2% | 76 nM
4 | Cc1[nH]c(/C=N/N=C2\C(=O)Nc3ccc(F)cc32)c(C)c1C(=O)NCCCNc1ccc(C(=O)Nc2ccccc2N)cn1 [Example 7, N-(2-aminophenyl)-6-(3-(2-(((5-fluoro-2-oxoindolin-3-ylidene)hydrazono)-methyl)-3,5-dimethyl-1H-pyrrole-4-carboxamido)propylamino)nicotinamide] | > 60 µM |  | 6.3% | > 60 µM | 387 nM | > 60 µM |  | 2.6% | > 1000 nM
5 | Cc1[nH]c(/C=C2\C(=O)Nc3ccc(F)cc32)c(C)c1C(=O)NCCCCNc1ccc(C(=O)Nc2ccccc2N)cn1 [Example 9, (Z)-N-(2-aminophenyl)-6-(4-(2-((5-fluoro-2-oxoindolin-3-ylidene)methyl)-3,5-dimethyl-1H-pyrrole-4-carboxamido)butylamino)nicotinamide] | 1.67 µM | 15500 nM | 81.4% | > 60 µM | 12 nM | > 60 µM | 20000 nM | 53.6% | 23 nM
6 | Cc1[nH]c(/C=N/N=C2\C(=O)Nc3ccc(F)cc32)c(C)c1C(=O)NCCCCNc1ccc(C(=O)Nc2ccccc2N)cn1 [Example 10, N-(2-aminophenyl)-6-(4-(2-(((5-fluoro-2-oxoindolin-3-ylidene)hydrazono)-methyl)-3,5-dimethyl-1H-pyrrole-4-carboxamido)butylamino)nicotinamide] | > 60 µM |  | 8.3% | > 60 µM | 568 nM | > 60 µM |  | 12.8% | > 1000 nM
7 | Cc1[nH]c(/C=C2\C(=O)Nc3ccc(F)cc32)c(C)c1C(=O)NCCNc1ccc(C(=O)Nc2ccc(F)cc2N)cn1 [Example 13, (Z)-N-(2-amino-4-fluorophenyl)-6-(2-(2-((5-fluoro-2-oxoindolin-3-ylidene)-methyl)-3,5-dimethyl-1H-pyrrole-4-carboxamido)ethylamino)nicotinamide] | > 60 µM |  | 1.8% | > 60 µM | 7 nM | > 60 µM |  | 0.5% | 534 nM
8 | Cc1[nH]c(/C=N/N=C2\C(=O)Nc3ccc(F)cc32)c(C)c1C(=O)NCCNc1ccc(C(=O)Nc2ccc(F)cc2N)cn1 [Example 14, N-(2-amino-4-fluorophenyl)-6-(2-(2-(((5-fluoro-2-oxoindolin-3-ylidene)-hydrazono)methyl)-3,5-dimethyl-1H-pyrrole-4-carboxamido)ethylamino)nicotinamide] | > 60 µM |  | 2.0% | > 60 µM | 201 nM | > 60 µM |  | 2.4% | > 1000 nM
9 | Cc1[nH]c(/C=C2\C(=O)Nc3ccc(F)cc32)c(C)c1C(=O)NCCCNc1ccc(C(=O)Nc2ccc(F)cc2N)cn1 [Example 16, (Z)-N-(2-amino-4-fluorophenyl)-6-(3-(2-((5-fluoro-2-oxoindolin-3-ylidene)-methyl)-3,5-dimethyl-1H-pyrrole-4-carboxamido)propylamino)nicotinamide] | > 60 µM |  | 1.8% | > 60 µM | 39 nM | > 60 µM |  | −0.2% | 242 nM
10 | Cc1[nH]c(/C=N/N=C2\C(=O)Nc3ccc(F)cc32)c(C)c1C(=O)NCCCNc1ccc(C(=O)Nc2ccc(F)cc2N)cn1 [Example 17, N-(2-amino-4-fluorophenyl)-6-(3-(2-(((5-fluoro-2-oxoindolin-3-ylidene)-hydrazono)methyl)-3,5-dimethyl-1H-pyrrole-4-carboxamido)propylamino)nicotinamide] | > 60 µM |  | 3.8% | > 60 µM | 460 nM | > 60 µM |  | 10.8% | > 1000 nM
